Assay results: publication PMC1208959 (Virology Journal, 2005)

Tests used:
[1] = molecular target: HeV F and HeV G glycoproteins (Hendra virus, UniProt O89342); type: cell-based
[2] = molecular target: NiV F and NiV G glycoproteins (Nipah virus, UniProt Q9IH63); type: cell-based
[3] = test system: live HeV
[4] = test system: live NiV

Chain of HeV F and HeV G glycoproteins (O89342 110-546 limits assumed): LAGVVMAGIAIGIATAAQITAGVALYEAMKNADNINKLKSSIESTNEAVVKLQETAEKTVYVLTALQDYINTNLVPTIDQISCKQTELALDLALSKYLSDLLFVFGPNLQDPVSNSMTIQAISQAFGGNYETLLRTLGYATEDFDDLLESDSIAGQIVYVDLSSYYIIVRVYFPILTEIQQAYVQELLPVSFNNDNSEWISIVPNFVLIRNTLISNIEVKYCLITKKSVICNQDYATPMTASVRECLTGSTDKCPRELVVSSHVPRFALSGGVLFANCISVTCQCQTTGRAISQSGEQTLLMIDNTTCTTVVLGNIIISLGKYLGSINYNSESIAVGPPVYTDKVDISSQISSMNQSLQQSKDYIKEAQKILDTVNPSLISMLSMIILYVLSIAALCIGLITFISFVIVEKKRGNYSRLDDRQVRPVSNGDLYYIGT
Chain of HeV F and HeV G glycoproteins (O89342 27-109 partner limits assumed): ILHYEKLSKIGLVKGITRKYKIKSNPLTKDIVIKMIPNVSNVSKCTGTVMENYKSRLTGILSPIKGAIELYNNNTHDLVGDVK
Chain of NiV F and NiV G glycoproteins (Q9IH63 110-546 limits assumed): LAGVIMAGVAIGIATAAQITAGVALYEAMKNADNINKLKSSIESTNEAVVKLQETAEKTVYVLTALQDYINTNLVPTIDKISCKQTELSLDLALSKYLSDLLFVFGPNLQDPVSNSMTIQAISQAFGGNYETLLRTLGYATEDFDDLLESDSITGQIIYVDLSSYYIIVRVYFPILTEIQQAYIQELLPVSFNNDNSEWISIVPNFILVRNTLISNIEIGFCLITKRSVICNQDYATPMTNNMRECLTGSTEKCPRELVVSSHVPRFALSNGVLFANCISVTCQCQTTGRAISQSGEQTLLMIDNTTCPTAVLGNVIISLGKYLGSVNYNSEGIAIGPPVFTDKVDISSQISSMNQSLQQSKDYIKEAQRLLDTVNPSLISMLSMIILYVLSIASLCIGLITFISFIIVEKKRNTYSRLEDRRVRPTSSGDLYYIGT
Chain of NiV F and NiV G glycoproteins (Q9IH63 27-109 partner limits assumed): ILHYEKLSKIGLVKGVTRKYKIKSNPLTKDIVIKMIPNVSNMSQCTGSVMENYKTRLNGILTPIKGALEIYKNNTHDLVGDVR

Row | Compound | inhibitory effect on cell-fusion (in words) [1] | inhibitory effect on cell-fusion (in words) [2] | effect on virus infection (in words) [3] | syncytial morphology and size (in words) [3] | effect on virus infection (in words) [4] | syncytial morphology and size (in words) [4] | reduction of activity versus N-PEG-NiV FC2 [1] | reduction of activity versus N-PEG-NiV FC2 [2]
1 | KQSSMISLQSQKSINSLPSQIRDYVQKTVLLAEDND [C-PEG-ScNiV FC2, reference compound] | no inhibitory activity | no inhibitory activity | no effect at any concentration tested | identical to those observed in the absence of any peptide | no effect at any concentration tested | identical to those observed in the absence of any peptide | – | –
2 | CC[C@H](C)[C@H](NC(=O)[C@H](Cc1ccc(O)cc1)NC(=O)[C@H](CC(=O)O)NC(=O)[C@H](CCCCN)NC(=O)[C@H](CO)NC(=O)[C@H](CCC(N)=O)NC(=O)[C@H](CCC(N)=O)NC(=O)[C@H](CC(C)C)NC(=O)[C@H](CO)NC(=O)[C@H](CCC(N)=O)NC(=O)[C@H](CC(N)=O)NC(=O)[C@H](CCSC)NC(=O)[C@H](CO)NC(=O)[C@H](CO)NC(=O)[C@@H](NC(=O)[C@H](CCC(N)=O)NC(=O)[C@H](CO)NC(=O)[C@H](CO)NC(=O)[C@@H](NC(=O)[C@H](CC(=O)O)NC(=O)[C@@H](NC(=O)[C@H](CCCCN)NC(C)=O)C(C)C)[C@@H](C)CC)[C@@H](C)CC)C(=O)N[C@@H](CCCCN)C(=O)N[C@@H](CCC(=O)O)C(=O)N[C@@H](C)C(=O)N[C@@H](CCC(N)=O)C(=O)N[C@@H](CCCNC(=N)N)C(=O)N[C@@H](CC(C)C)C(=O)N[C@@H](CC(C)C)C(=O)N[C@@H](CC(=O)O)C(=O)N[C@H](C(=O)N[C@H](C(=O)N[C@@H](CC(N)=O)C(=O)N1CCC[C@H]1C(=O)N[C@@H](CO)C(=O)N[C@@H](CC(C)C)C(=O)NCCOCCOCCOCCOCCOCCOCCOCCOCCOCCOCCOCCOCCC(=O)O)C(C)C)[C@@H](C)O [C-PEG NiV FC2] | – | – | – | – | – | – | approximately 20 fold | approximately 20 fold
3 | Ac-KQSSMISLQSQKSINSLPSQIRDYVQKTVLLAEDND-NH2 [capped-ScNiV FC2] | no inhibitory effect | no inhibitory effect | – | – | – | – | – | –
